Tests used:
[1] = target: T1, wild-type AGT (T4 phage α-glucosyltransferase) (Enterobacteria phage T4, UniProt P04519); experiment: Enzymatic transfer of UDP-sugars to BGT DNA by wild-type AGT (protection from MfeI cleavage, agarose gel); assay type: biochemical; conditions: for UDP-Sugar concentration required for complete protection of BGT DNA from MfeI cleavage: enzyme AGT, 100 ng, 0.25 μg BGT DNA, 37° C. 1 h, >> incomplete protection at highest tested concentration, n.a. no activity
T1 construct: purchased New England Biolabs, Inc. (Ipswich, Mass.)
T1 sequence (P04519 whole entry): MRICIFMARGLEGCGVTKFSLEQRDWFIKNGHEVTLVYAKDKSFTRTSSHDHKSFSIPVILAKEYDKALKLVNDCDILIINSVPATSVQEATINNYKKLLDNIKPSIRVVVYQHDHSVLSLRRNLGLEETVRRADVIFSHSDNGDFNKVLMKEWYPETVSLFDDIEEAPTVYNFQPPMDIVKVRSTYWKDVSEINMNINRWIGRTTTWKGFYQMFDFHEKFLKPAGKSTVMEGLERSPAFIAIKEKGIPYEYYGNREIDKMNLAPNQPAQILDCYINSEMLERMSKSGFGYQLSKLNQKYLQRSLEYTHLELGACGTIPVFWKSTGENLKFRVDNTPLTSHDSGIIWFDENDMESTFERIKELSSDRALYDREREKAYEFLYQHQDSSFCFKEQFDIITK
Procedure: (§1) After glycosylation, the glucosyltransferase was heat-inactivated by incubating for 10 minutes at 70° C. To analyze the enzyme-catalyzed transfer efficiency, samples were incubated with 1 μL (20 units) MfeI for 1 hour at 37° C. Reaction products were separated by agarose gel electrophoresis and stained with ethidium bromide to check for complete protection of BGT DNA against MfeI cleavage.
Nucleic Acids Res., 13, 7551-7568; Szwagierczak, A., Bultmann, S., Schmidt, C. […] Nucleic Acids Res., 38, e181].
(§2) BGT DNA contains 5-hmC instead of cytosine and was produced from phage deficient in α- and β-glucosyltransferases. The degree of glycosylation of BGT DNA was determined by incubating the samples with the restriction endonuclease MfeI.
(§3) Top row: wild-type BGT; middle row: BGT/Y261L; bottom row: wild-type AGT. […] Then the glucosyltransferase was killed by heat at 70° C., and 1 μL (20 units) MfeI was added and incubated at 37° C. for 1 hour. The results were analyzed by agarose gel electrophoresis. Concentration values are given in mM.
(§4) Top row: wild-type BGT; middle row: BGT/Y261L; bottom row: wild-type AGT. […] Various concentrations of each substrate (as indicated) were incubated with 0.25 μg BGT DNA in the presence of 100 ng glucosyltransferase at 37° C. for 1 hour. Then the glucosyltransferase was killed by heat at 70° C. for 10 minutes, and 1 μL (20 units) MfeI was added and incubated at 37° C. for 1 hour. The results were analyzed by agarose gel electrophoresis. Concentration values are given in mM.

[2] = target: T2, wild-type BGT (T4-β-glucosyltransferase) (Enterobacteria phage T4, UniProt P04547); experiment: Enzymatic transfer of UDP-sugars to BGT DNA by wild-type BGT (protection from MfeI cleavage, agarose gel); assay type: biochemical; conditions: for UDP-Sugar concentration required for complete protection of BGT DNA from MfeI cleavage: enzyme BGT, 100 ng, 0.25 μg BGT DNA, 37° C. 1 h, >> incomplete protection at highest tested concentration, n.a. no activity
T2 construct: purchased New England Biolabs, Inc. (Ipswich, Mass.)
T2 sequence (P04547 1-351): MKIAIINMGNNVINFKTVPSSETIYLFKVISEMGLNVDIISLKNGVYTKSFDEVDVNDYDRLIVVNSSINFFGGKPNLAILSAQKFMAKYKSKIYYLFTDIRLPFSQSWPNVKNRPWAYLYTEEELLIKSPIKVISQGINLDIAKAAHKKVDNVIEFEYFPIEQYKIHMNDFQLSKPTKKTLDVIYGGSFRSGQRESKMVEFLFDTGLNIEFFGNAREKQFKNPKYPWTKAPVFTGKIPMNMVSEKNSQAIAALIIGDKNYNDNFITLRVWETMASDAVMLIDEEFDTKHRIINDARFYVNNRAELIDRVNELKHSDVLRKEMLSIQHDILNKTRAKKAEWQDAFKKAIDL
Procedure: as §1, with “cleavage. […]” for “cleavage.”
as §2, §3, §4

[3] = target: T3, wild-type BGT (Enterobacteria phage T4, UniProt P04547); conditions: 0.02 to 10.0 mM in the presence of 40 μM UDP-Glc; UDP-Glc 0.02 to 20.0 mM in the presence of 5 mM compound
Procedure: (§5) After adding 100 ng of wild-type BGT or BGT/Y261L, the reaction mixtures were incubated at 37° C. for 1 hour in 1× NEBuffer 4. After glycosylation, the glucosyltransferase was heat-inactivated by incubating for 10 minutes at 70° C. […] Reaction products were separated by electrophoresis on agarose gel and stained with ethidium bromide.
(§6) Concentration values are given in mM.

[4] = target: T4, BGT/Y261L (Enterobacteria phage T4, UniProt P04547, Y261L); conditions: 0.02 to 10.0 mM in the presence of 40 μM UDP-Glc; UDP-Glc 0.02 to 20.0 mM in the presence of 5 mM compound
T4 sequence (P04547 whole entry Y261L): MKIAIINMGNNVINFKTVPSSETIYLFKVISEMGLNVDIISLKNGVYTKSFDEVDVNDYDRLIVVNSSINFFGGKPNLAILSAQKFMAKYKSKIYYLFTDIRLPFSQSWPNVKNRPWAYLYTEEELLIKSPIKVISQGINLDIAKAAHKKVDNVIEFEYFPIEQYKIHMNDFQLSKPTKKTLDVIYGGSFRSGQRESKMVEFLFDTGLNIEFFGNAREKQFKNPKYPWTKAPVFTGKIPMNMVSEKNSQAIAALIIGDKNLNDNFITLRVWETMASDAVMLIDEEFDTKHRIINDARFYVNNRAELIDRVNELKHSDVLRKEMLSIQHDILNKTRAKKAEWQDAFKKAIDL
Procedure: as §5, §6

[5] = target: T4, BGT/Y261L; assay type: biochemical; set-up: purchased New England Biolabs, Inc. (Ipswich, Mass.); conditions: for transfer efficiency by BGT/Y261L (in words): compared with natural UDP-Glc; for UDP-Sugar concentration required for complete protection of BGT DNA from MfeI cleavage: enzyme BGT/Y261L, 100 ng, 0.25 μg BGT DNA, 37° C. 1 h, >> incomplete protection at highest tested concentration, n.a. no activity
Procedure: as §1, with “cleavage. […]” for “cleavage.”
as §2, §3, §4

[6] = target: AGT (Enterobacteria phage T4, UniProt P04519)
Chain of AGT (P04519 whole entry): as the sequence (P04519 whole entry) above

[7] = target: T3, wild-type BGT; conditions: cited from earlier work

Row | Compound | UDP-Sugar concentration required for complete protection of BGT DNA from MfeI cleavage [1] | UDP-Sugar concentration required for complete protection of BGT DNA from MfeI cleavage [2] | UDP-Sugar concentration required for complete protection of BGT DNA from MfeI cleavage [5] | further results
1 | [N-]=[N+]=NC1C(OP(=O)(O)OP(=O)(O)OCC2OC(n3ccc(=O)[nH]c3=O)C(O)C2O)OC(CO)C(O)C1O (stereo not shown) [Compound 2, UDP-2-Azido-Glc] |  |  |  | transfer efficiency by wild-type AGT (in words) [1]: None of the three tested enzymes efficiently transferred; transfer efficiency by wild-type BGT (in words) ([2]; compared with natural UDP-Glc): None of the three tested enzymes efficiently transferred; inhibition of wild-type BGT (mode, in words) [3]: competitive inhibitor; inhibition of BGT/Y261L (mode, in words) [4]: competitive inhibitor; transfer efficiency by BGT/Y261L (in words) [5]: None of the three tested enzymes efficiently transferred; inhibition of AGT (in words) [6]: not for AGT
2 | N[C@H]1[C@@H](OP(=O)(O)OP(=O)(O)OC[C@H]2O[C@@H](n3ccc(=O)[nH]c3=O)[C@H](O)[C@@H]2O)O[C@H](CO)[C@@H](O)[C@@H]1O [Compound 4, UDP-2-glucosamine] | >>1.25 mM | 0.03 mM | 0.03 mM | 
3 | [N-]=[N+]=NCC1OC(OP(=O)(O)OP(=O)(O)OC[C@H]2O[C@@H](n3ccc(=O)[nH]c3=O)[C@H](O)[C@@H]2O)C(O)C(O)C1O (stereo partly shown) [Compound 1, UDP-6-Azido-Glc, reference compound] |  | 0.04 mM | >>1.0 mM | transfer efficiency by BGT/Y261L (in words) [5]: cannot efficiently transfer; decrease in the reaction rate compared to the native UDP-Glc cofactor [7]: ~6 fold
4 | O=C(O)[C@H]1O[C@H](OP(=O)(O)OP(=O)(O)OC[C@H]2O[C@@H](n3ccc(=O)[nH]c3=O)[C@H](O)[C@@H]2O)[C@H](O)[C@@H](O)[C@@H]1O [UDP-GlcUA, UDP-Glucuronic acid, reference compound] | >>20.0 mM | 1.0 mM | >>10.0 mM | 
5 | CC(=O)N[C@H]1[C@@H](OP(=O)(O)OP(=O)(O)OC[C@H]2O[C@@H](n3ccc(=O)[nH]c3=O)[C@H](O)[C@@H]2O)O[C@H](CO)[C@@H](O)[C@@H]1O [UDP-GlcNAc, UDP-N-acetyl-D-glucosamine, reference compound] | >>20.0 mM | 25 mM | 2.5 mM | transfer by BGT/Y261L more efficient than by wild-type BGT ([5]; BGT/Y261L versus wild-type BGT): 10 fold; transfer efficiency by the Y261L enzyme, lower compared to UDP-2-GlcN 4 ([5]; relative to UDP-2-GlcN 4): approximately 100 fold
6 | NCC1OC(OP(=O)(O)OP(=O)(O)OC[C@H]2O[C@@H](n3ccc(=O)[nH]c3=O)[C@H](O)[C@@H]2O)C(O)C(O)C1O (stereo partly shown) [Compound 3, UDP-6-glucosamine] | >>5.0 mM | 0.02 mM | 0.31 mM | transfer efficiency by BGT/Y261L, lower than natural UDP-Glc ([5]; relative to natural UDP-Glc): about 15 fold
7 | UDP-2-Keto-Glc [Compound 5] |  | >>4.0 mM | >>4.0 mM | transfer by BGT/Y261L at the highest tested concentration ([5]; 4 mM): not detected

Source: US9200260B2, “Compositions and methods for the transfer of a hexosamine to a modified nucleotide in a nucleic acid” (New England Biolabs, Inc., priority 2012, dated 2015)
